*1 amine or outer side, *2 acyl side, *3 side chain or, on linkers, in order; H or OH if unused. Where a SMILES comes first, the peptide text is derived from it. Bridges are numbered along the chain shown (N, C = ends). [ ]: non-standard residue; d: D form. The star is where a group is joined. C20 diacid = O=C(O)CCCCCCCCCCCCCCCCCCC(=O)*; γGlu = O=C(O)[C@H](CCC(=O)[*:2])N[*:1]; Hyp = O=C(O)[C@@H]1C[C@@H](O)CN1; NMeI = CC[C@H](C)[C@H](NC)C(=O)O; Sar = CNCC(=O)O
What was measured:
[1] = Assessment of chemical stability (RP-HPLC normalized purity); assay type: physicochemical; details: 7 days, 40° C., Table 1; for Normalized purity after 7 days, 40° C., pH 4: pH 4, 0.2 mg/ml; for Normalized purity after 7 days, 40° C., pH 6: pH 6, 0.2 mg/ml; for Normalized purity after 7 days, 40° C., pH 9: pH 9, 0.2 mg/ml; for Normalized purity after 7 days, 40° C., pH 7.5: pH 7.5, 0.2 mg/ml
Method in brief: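 Peptides at 0.2 mg/ml in water adjusted to pH 4, 6, 7.5 or 9, incubated at 40° C for 7 days. Main-peak area-% by RP-HPLC (C8 ammonium formate or C18 TFA gradient, UV 220 nm), normalized to T=0 as 100.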

[2] = biological target: T1, human calcitonin receptor (hCTR2) (Homo sapiens, UniProt P30988); assay: hCTR2 cAMP assay (AlphaScreen) in COS7 cells; assay type: cell-based; details: cAMP induction, COS7 cells expressing hCTR2; Table 1; read-out: hCTR2 EC50
T1 construct: expressed in transfected cells
T1 sequence (P30988 25-474): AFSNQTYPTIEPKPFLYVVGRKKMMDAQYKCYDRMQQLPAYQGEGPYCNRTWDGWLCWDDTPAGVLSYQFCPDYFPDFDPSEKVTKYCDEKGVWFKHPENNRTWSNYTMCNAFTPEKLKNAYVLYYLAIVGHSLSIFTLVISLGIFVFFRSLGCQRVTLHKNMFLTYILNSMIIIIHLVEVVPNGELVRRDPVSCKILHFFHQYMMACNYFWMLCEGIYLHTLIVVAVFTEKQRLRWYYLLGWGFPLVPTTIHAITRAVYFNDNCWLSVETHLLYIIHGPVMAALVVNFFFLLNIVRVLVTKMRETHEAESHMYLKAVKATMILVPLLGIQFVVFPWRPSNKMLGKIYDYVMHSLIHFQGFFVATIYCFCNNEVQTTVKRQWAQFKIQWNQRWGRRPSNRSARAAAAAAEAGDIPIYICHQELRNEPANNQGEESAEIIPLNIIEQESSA
Method in brief: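 Stable hCTR2 clone in RAMP-naïve COS7 cells stimulated 15 min at 37 °C with increasing peptide concentrations in Tyrode buffer pH 7.4 containing IBMX and 0.1% casein. cAMP in lysates measured by AlphaScreen; EC50 from 4-parameter logistic fit.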

SMILES | Normalized purity after 7 days, 40° C., pH 4 [1] | Normalized purity after 7 days, 40° C., pH 6 [1] | Normalized purity after 7 days, 40° C., pH 9 [1] | EC50 [2] | Normalized purity after 7 days, 40° C., pH 7.5 [1]
CC[C@H](C)[C@@H](C(=O)N[C@@H](CC(C)C)C(=O)N[C@@H](CO)C(=O)N[C@@H](CO)C(=O)N[C@H](C(=O)N[C@@H](CCC(=O)O)C(=O)N[C@H](C(=O)NCC(=O)N[C@@H](CO)C(=O)N[C@@H](CC(N)=O)C(=O)N[C@H](C(=O)N1C[C@H](O)C[C@H]1C(N)=O)[C@@H](C)O)C(C)C)[C@@H](C)O)N(C)C(=O)[C@H](C)NC(=O)CN(C)C(=O)[C@H](Cc1ccccc1)NC(=O)[C@H](CO)NC(=O)[C@H](CO)NC(=O)[C@H](CCCNC(=N)N)NC(=O)[C@H](CC(N)=O)NC(=O)[C@H](CC(C)C)NC(=O)[C@H](Cc1ccccc1)NC(=O)[C@H](Cc1c[nH]cn1)NC(=O)[C@H](C)NC(=O)[C@H](CC(C)C)NC(=O)[C@H](CCCNC(=N)N)NC(=O)[C@H](CCC(=O)O)NC(=O)[C@@H](NC(=O)[C@H](C)NC(=O)[C@@H]1CSSC[C@H](NC(=O)[C@H](CCCNC(=N)N)NC(=O)CC[C@H](NC(=O)CCCCCCCCCCCCCCCCCCC(=O)O)C(=O)O)C(=O)NCC(=O)N[C@@H]([C@@H](C)O)C(=O)N[C@@H](C)C(=O)N[C@@H]([C@@H](C)O)C(=O)N1)[C@@H](C)O [Compound 6, [19CD]-isoGlu-R-C( )-GTAT-C( )-ATERLAHFLNRSSF-Gly(Me)-A-Ile(Me)-LSSTEVGSNT-Hyp-NH2] ({C20 diacid-γGlu}-RCGTATCATERLAHFLNRSSF[Sar]A[NMeI]LSSTEVGSNT[Hyp]-NH2; disulfide 2-7) | A (A = >90%) | B (B = 70-90%) | B (B = 70-90%) | 0.077 nM | –
CC[C@H](C)[C@@H](C(=O)N[C@@H](CC(C)C)C(=O)N[C@@H](CO)C(=O)N[C@@H](CO)C(=O)N[C@H](C(=O)N[C@@H](CCC(=O)O)C(=O)N[C@H](C(=O)NCC(=O)N[C@@H](CO)C(=O)N[C@@H](CC(N)=O)C(=O)N[C@H](C(=O)N1CCC[C@H]1C(N)=O)[C@@H](C)O)C(C)C)[C@@H](C)O)N(C)C(=O)[C@H](C)NC(=O)CN(C)C(=O)[C@H](Cc1ccccc1)NC(=O)[C@H](CO)NC(=O)[C@H](CO)NC(=O)[C@H](CCCNC(=N)N)NC(=O)[C@H](Cc1c[nH]cn1)NC(=O)[C@H](CC(C)C)NC(=O)[C@H](Cc1ccccc1)NC(=O)[C@H](Cc1c[nH]cn1)NC(=O)[C@H](C)NC(=O)[C@H](CC(C)C)NC(=O)[C@H](CCCNC(=N)N)NC(=O)[C@H](CCC(=O)O)NC(=O)[C@@H](NC(=O)[C@H](C)NC(=O)[C@@H]1CSSC[C@H](NC(=O)[C@H](CCCNC(=N)N)NC(=O)CC[C@H](NC(=O)CCCCCCCCCCCCCCCCCCC(=O)O)C(=O)O)C(=O)NCC(=O)N[C@@H]([C@@H](C)O)C(=O)N[C@@H](C)C(=O)N[C@@H]([C@@H](C)O)C(=O)N1)[C@@H](C)O [Compound 15, [19CD]-isoGlu-R-C( )-GTAT-C( )-ATERLAHFLHRSSF-Gly(Me)-A-Ile(Me)-LSSTEVGSNTP-NH2] ({C20 diacid-γGlu}-RCGTATCATERLAHFLHRSSF[Sar]A[NMeI]LSSTEVGSNTP-NH2; disulfide 2-7) | A (A = >90%) | B (B = 70-90%) | B (B = 70-90%) | 0.044 nM | B (B = 70-90%)
CC[C@H](C)[C@@H](C(=O)N[C@@H](CC(C)C)C(=O)N[C@@H](CO)C(=O)N[C@@H](CO)C(=O)N[C@H](C(=O)N[C@@H](CCC(=O)O)C(=O)N[C@H](C(=O)NCC(=O)N[C@@H](CO)C(=O)N[C@@H](CO)C(=O)N[C@H](C(=O)N1C[C@H](O)C[C@H]1C(N)=O)[C@@H](C)O)C(C)C)[C@@H](C)O)N(C)C(=O)[C@H](C)NC(=O)CN(C)C(=O)[C@H](Cc1ccccc1)NC(=O)[C@H](CO)NC(=O)[C@H](CO)NC(=O)[C@H](CCCNC(=N)N)NC(=O)[C@H](CCC(N)=O)NC(=O)[C@H](CC(C)C)NC(=O)[C@H](Cc1ccccc1)NC(=O)[C@H](Cc1c[nH]cn1)NC(=O)[C@H](C)NC(=O)[C@H](CC(C)C)NC(=O)[C@H](CCCNC(=N)N)NC(=O)[C@H](CCC(=O)O)NC(=O)[C@@H](NC(=O)[C@H](C)NC(=O)[C@@H]1CSSC[C@H](NC(=O)[C@H](CCCNC(=N)N)NC(=O)CC[C@H](NC(=O)CCCCCCCCCCCCCCCCCCC(=O)O)C(=O)O)C(=O)NCC(=O)N[C@@H]([C@@H](C)O)C(=O)N[C@@H](C)C(=O)N[C@@H]([C@@H](C)O)C(=O)N1)[C@@H](C)O [Compound 28, [19CD]-isoGlu-R-C( )-GTAT-C( )-ATERLAHFLQRSSF-Gly(Me)-A-Ile(Me)-LSSTEVGSST-Hyp-NH2] ({C20 diacid-γGlu}-RCGTATCATERLAHFLQRSSF[Sar]A[NMeI]LSSTEVGSST[Hyp]-NH2; disulfide 2-7) | A (A = >90%) | B (B = 70-90%) | B (B = 70-90%) | 0.11 nM | B (B = 70-90%)
CC[C@H](C)[C@@H](C(=O)N[C@@H](CC(C)C)C(=O)N[C@@H](CO)C(=O)N[C@@H](CO)C(=O)N[C@H](C(=O)N[C@@H](CCC(=O)O)C(=O)N[C@H](C(=O)NCC(=O)N[C@@H](CO)C(=O)N[C@@H](CO)C(=O)N[C@H](C(=O)N1CCC[C@H]1C(N)=O)[C@@H](C)O)C(C)C)[C@@H](C)O)N(C)C(=O)[C@H](C)NC(=O)CN(C)C(=O)[C@H](Cc1ccccc1)NC(=O)[C@H](CO)NC(=O)[C@H](CO)NC(=O)[C@H](CCCNC(=N)N)NC(=O)[C@H](CCC(N)=O)NC(=O)[C@H](CC(C)C)NC(=O)[C@H](Cc1ccccc1)NC(=O)[C@H](Cc1c[nH]cn1)NC(=O)[C@H](C)NC(=O)[C@H](CC(C)C)NC(=O)[C@H](CCCNC(=N)N)NC(=O)[C@H](CCC(=O)O)NC(=O)[C@@H](NC(=O)[C@H](C)NC(=O)[C@@H]1CSSC[C@H](NC(=O)[C@H](CCCNC(=N)N)NC(=O)CC[C@H](NC(=O)CCCCCCCCCCCCCCCCCCC(=O)O)C(=O)O)C(=O)NCC(=O)N[C@@H]([C@@H](C)O)C(=O)N[C@@H](C)C(=O)N[C@@H]([C@@H](C)O)C(=O)N1)[C@@H](C)O [Compound 34, [19CD]-isoGlu-R-C( )-GTAT-C( )-ATERLAHFLQRSSF-Gly(Me)-A-Ile(Me)-LSSTEVGSSTP-NH2] ({C20 diacid-γGlu}-RCGTATCATERLAHFLQRSSF[Sar]A[NMeI]LSSTEVGSSTP-NH2; disulfide 2-7) | A (A = >90%) | B (B = 70-90%) | B (B = 70-90%) | 0.09 nM | B (B = 70-90%)
CC[C@H](C)[C@@H](C(=O)N[C@@H](CC(C)C)C(=O)N[C@@H](CO)C(=O)N[C@@H](CO)C(=O)N[C@H](C(=O)N[C@@H](CCC(=O)O)C(=O)N[C@H](C(=O)NCC(=O)N[C@@H](CO)C(=O)N[C@@H](CO)C(=O)N[C@H](C(=O)N1CCC[C@H]1C(N)=O)[C@@H](C)O)C(C)C)[C@@H](C)O)N(C)C(=O)[C@H](C)NC(=O)CN(C)C(=O)[C@H](Cc1ccccc1)NC(=O)[C@H](CO)NC(=O)[C@H](CO)NC(=O)[C@H](CCCNC(=N)N)NC(=O)[C@H](CCC(=O)O)NC(=O)[C@H](CC(C)C)NC(=O)[C@H](Cc1ccccc1)NC(=O)[C@H](Cc1c[nH]cn1)NC(=O)[C@H](C)NC(=O)[C@H](CC(C)C)NC(=O)[C@H](CCCNC(=N)N)NC(=O)[C@H](CCC(=O)O)NC(=O)[C@@H](NC(=O)[C@H](C)NC(=O)[C@@H]1CSSC[C@H](NC(=O)[C@H](CCCNC(=N)N)NC(=O)CC[C@H](NC(=O)CCCCCCCCCCCCCCCCCCC(=O)O)C(=O)O)C(=O)NCC(=O)N[C@@H]([C@@H](C)O)C(=O)N[C@@H](C)C(=O)N[C@@H]([C@@H](C)O)C(=O)N1)[C@@H](C)O [Compound 36, [19CD]-isoGlu-R-C( )-GTAT-C( )-ATERLAHFLERSSF-Gly(Me)-A-Ile(Me)-LSSTEVGSSTP-NH2] ({C20 diacid-γGlu}-RCGTATCATERLAHFLERSSF[Sar]A[NMeI]LSSTEVGSSTP-NH2; disulfide 2-7) | A (A = >90%) | A (A = >90%) | B (B = 70-90%) | 0.21 nM | B (B = 70-90%)

Source: patent US20210115104A1, “AMYLIN ANALOGUES” (Zealand Pharma A/S, priority 2015, published 2021)
